Experimental data: PubChem BioAssay (NCI)
Values joined by “and” are separate entries in the source; they are usually repeats but may differ in a detail not shown here. Identical values can stand only once.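 Assay format: 96-well plates, 48-hour exposure. GI50 marks 50% less growth. TGI is the concentration that stops growth completely.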

Key:
Test in all cases: DTP human tumour cell line panel, 48 h
[1] = system: 786-0 renal
[2] = system: A498 renal
[3] = system: A549 NSCLC
[4] = system: ACHN renal
[5] = system: BT-549 breast
[6] = system: CAKI-1 renal
[7] = system: CCRF-CEM leukemia
[8] = system: COLO 205 colon
[9] = system: DU-145 prostate
[10] = system: EKVX NSCLC
[11] = system: HCC-2998 colon
[12] = system: HCT-116 colon
[13] = system: HCT-15 colon
[14] = system: HL-60(TB) leukemia
[15] = system: HOP-62 NSCLC
[16] = system: HOP-92 NSCLC
[17] = system: HS 578T breast
[18] = system: HT29 colon
[19] = system: IGROV1 ovarian
[20] = system: K-562 leukemia
[21] = system: KM12 colon
[22] = system: LOX IMVI melanoma
[23] = system: M14 melanoma
[24] = system: MALME-3M melanoma
[25] = system: MCF7 breast
[26] = system: MDA-MB-231 breast
[27] = system: MDA-MB-435
[28] = system: MOLT-4 leukemia
[29] = system: NCI-H226 lung
[30] = system: NCI-H23 lung
[31] = system: NCI-H460 lung
[32] = system: NCI-H522 lung
[33] = system: NCI/ADR-RES ovarian
[34] = system: OVCAR-3 ovarian
[35] = system: OVCAR-4 ovarian
[36] = system: OVCAR-5 ovarian
[37] = system: OVCAR-8 ovarian
[38] = system: PC-3 prostate
[39] = system: RPMI-8226 leukemia
[40] = system: RXF 393 renal
[41] = system: SF-268 CNS
[42] = system: SF-295 CNS
[43] = system: SF-539 CNS
[44] = system: SK-MEL-2 melanoma
[45] = system: SK-MEL-28 melanoma
[46] = system: SK-MEL-5 melanoma
[47] = system: SK-OV-3 ovarian
[48] = system: SN12C renal
[49] = system: SNB-19 CNS
[50] = system: SNB-75 CNS
[51] = system: SR leukemia
[52] = system: SW-620 colon
[53] = system: T-47D breast
[54] = system: TK-10 renal
[55] = system: U251 CNS
[56] = system: UACC-257 melanoma
[57] = system: UACC-62 melanoma
[58] = system: UO-31 renal

`CO[C@@H](C)Cn1c(=O)n(C)c2cnc3ccc(-c4cncc(C(C)(C)O)c4)cc3c21` was tested, and the GI50 [1] was 59 nM and 41.8 nM, the TGI [1] was 2200 nM and 1990 nM and the GI50 [2] was 27.3 nM and 10.9 nM. For the same compound, the TGI [2] was 124 nM and 59.1 nM, the GI50 [3] was 76.8 nM and 53.5 nM and the TGI [3] was 1570 nM and > 3220 nM. The GI50 [4] was 135 nM and 97.5 nM, the TGI [4] was over 100000 nM and the GI50 [5] was 54 nM and 41 nM. For the same compound, the TGI [5] was 707 nM and 444 nM, the GI50 [6] was 50.5 nM and the TGI [6] was 512 nM. The GI50 [7] was 203 nM and 87.4 nM, the TGI [7] was over 100000 nM and the GI50 [8] was 145 nM and 92.4 nM. The TGI [8] was 1510 nM and 1490 nM, the GI50 [9] was 93.5 nM and 59.1 nM and the TGI [9] was over 100000 nM. The GI50 [10] was 69.1 nM and 66.9 nM, the TGI [10] was 847 nM and 1400 nM and the GI50 [11] was 257 nM and 88.5 nM. For the same compound, the TGI [11] was 13800 nM and > 10000 nM, the GI50 [12] was 303 nM and 187 nM and the TGI [12] was 10800 nM and > 7650 nM. The GI50 [13] was 141 nM and 77.5 nM, the TGI [13] was 23200 nM and > 10000 nM and the GI50 [14] was 717 nM and 361 nM. The TGI [14] was 9780 nM and > 6740 nM, the GI50 [15] was 126 nM and 81 nM and the TGI [15] was 1390 nM and 1410 nM. For the same compound, the GI50 [16] was 109 nM and 27.9 nM, the TGI [16] was 644 nM and 188 nM and the GI50 [17] was 28.6 nM. For the same compound, the TGI [17] was 191 nM, the GI50 [18] was 93.3 nM and 75.6 nM and the TGI [18] was 12700 nM and > 6870 nM. For the same compound, the GI50 [19] was 40.7 nM and 30.3 nM, the TGI [19] was 249 nM and 212 nM and the GI50 [20] was 302 nM and 132 nM. For the same compound, the TGI [20] was over 100000 nM, the GI50 [21] was 326 nM and 122 nM and the TGI [21] was 12700 nM and > 10000 nM. The GI50 [22] was 52.6 nM and 37.6 nM, the TGI [22] was 1270 nM and 1320 nM and the GI50 [23] was 149 nM and 111 nM. For the same compound, the TGI [23] was 5100 nM and > 4680 nM, the GI50 [24] was 58.4 nM and 63.8 nM and the TGI [24] was 317 nM and 480 nM. The GI50 [25] was 140 nM and 59.3 nM, the TGI [25] was 47900 nM and > 10000 nM and the GI50 [26] was 166 nM and 44 nM. The TGI [26] was 3870 nM and 2120 nM, the GI50 [27] was 146 nM and 71.8 nM and the TGI [27] was 3440 nM and 1160 nM. The GI50 [28] was 196 nM and 163 nM, the TGI [28] was 1770 nM and 4100 nM and the GI50 [29] was 40.6 nM. For the same compound, the TGI [29] was 477 nM, the GI50 [30] was 203 nM and 133 nM and the TGI [30] was 29800 nM and > 6670 nM. The GI50 [31] was 143 nM and 53.9 nM, the TGI [31] was over 100000 nM and the GI50 [32] was 51.3 nM. The TGI [32] was 653 nM, the GI50 [33] was 1060 nM and 384 nM and the TGI [33] was 14000 nM and > 10000 nM. The GI50 [34] was 119 nM and 65.6 nM, the TGI [34] was 6490 nM and > 3390 nM and the GI50 [35] was 105 nM and 51.4 nM. For the same compound, the TGI [35] was 676 nM and 667 nM, the GI50 [36] was 191 nM and 95.6 nM and the TGI [36] was over 100000 nM. The GI50 [37] was 154 nM and 69.7 nM, the TGI [37] was 2900 nM and > 4100 nM and the GI50 [38] was 161 nM and 44.5 nM. The GI50 [39] was 186 nM and 59 nM, the TGI [39] was 2060 nM and 968 nM and the GI50 [40] was 41.6 nM and 32.5 nM. The TGI [40] was 341 nM and 216 nM, the GI50 [41] was 140 nM and 79.6 nM and the TGI [41] was 16800 nM and > 5750 nM. For the same compound, the GI50 [42] was 49.5 nM and 37.3 nM, the TGI [42] was 422 nM and 328 nM and the GI50 [43] was 105 nM and 52.5 nM. For the same compound, the TGI [43] was 696 nM and 414 nM, the GI50 [44] was 105 nM and the TGI [44] was 494 nM. The GI50 [45] was 143 nM and 77.3 nM, the TGI [45] was 2500 nM and 573 nM and the GI50 [46] was 103 nM and 99.2 nM. The TGI [46] was 408 nM and 418 nM, the GI50 [47] was 48.8 nM and 42.4 nM and the TGI [47] was 358 nM and 285 nM. The GI50 [48] was 112 nM and 54.4 nM, the TGI [48] was 70000 nM and > 10000 nM and the GI50 [49] was 143 nM and 77.3 nM. The TGI [49] was 7790 nM and > 10000 nM, the GI50 [50] was 23.5 nM and 21.7 nM and the TGI [50] was 264 nM and 163 nM. The GI50 [51] was 153 nM and 113 nM, the TGI [51] was 14900 nM and > 10000 nM and the GI50 [52] was 248 nM and 110 nM. The TGI [52] was 16400 nM and > 10000 nM, the GI50 [53] was 40.9 nM and 28.4 nM and the TGI [53] was 378 nM and 208 nM. The GI50 [54] was 120 nM and 69.4 nM, the TGI [54] was 719 nM and 536 nM and the GI50 [55] was 127 nM and 63.3 nM. The TGI [55] was 12600 nM and > 10000 nM, the GI50 [56] was 195 nM and 93.2 nM and the TGI [56] was 741 nM and 538 nM. The GI50 [57] was 97.6 nM and 39.4 nM, the TGI [57] was 413 nM and 255 nM and the GI50 [58] was 34.8 nM and 23.7 nM. The TGI [58] was 346 nM and 336 nM.
